Among the data in ChEMBL document CHEMBL1151970, “Cardioprotection with the parrodiene 2,4,6-octatrienal and its potassium salt through activation of the Akt-Bcl-2 survival pathway” (2009) are Activity values, retold here.

Each structure is given as a SMILES string. Calls of active or inactive are those of the source. No cut-off for these calls is given here.

Assay [1] has as its system Heart. Briefly: Cardioprotective activity in Langendorff perfused Sprague-Dawley rat heart assessed as recovery of first derivative of left ventricular developed pressure at 50 mM preperfused 15 mins before global ischemia challenge for 30 mins followed by 120 mins of reperfusion. The assay is classed as functional, tissue-based.
Assay [2] concerns Heart. The experiment in a line: Cardioprotective activity in Langendorff perfused Sprague-Dawley rat heart assessed as reduction in number of cardiomycotic apoptic cells at 50 mM preperfused 15 mins before global ischemia challenge for 30 mins followed by 120 mins of reperfusion by TUNEL assay. The assay is classed as functional. On the set-up: scale not given: the % may be the effect or the level left.

The test system of assay [3] is Heart. The experiment in a line: Cardioprotective activity in Langendorff perfused Sprague-Dawley rat heart assessed as down regulation of HO1 at 50 mM preperfused 15 mins before global ischemia challenge for 30 mins followed by 120 mins of reperfusion by Western blotting. The assay is classed as functional, tissue-based.
Assay [4] deals with Heart. The experiment in a line: Cardioprotective activity in Langendorff perfused Sprague-Dawley rat heart assessed as reduction of pro-caspase 3 activation in ischemic reperfused myocardium at 50 mM preperfused 15 mins before global ischemia challenge for 30 mins followed by 120 mins of reperfusion by Western blotting. The assay is classed as functional, tissue-based. A general note: In western blotting, separated proteins are transferred to a membrane and probed.

For assay [5], the system named is Heart. Briefly: Cardioprotective activity in Langendorff perfused Sprague-Dawley rat heart assessed as activation of Akt phosphorylation at 50 mM preperfused 15 mins before global ischemia challenge for 30 mins followed by 120 mins of reperfusion. Format: functional, tissue-based.
Assay [6] relates to Heart. Briefly: Cardioprotective activity in Langendorff perfused Sprague-Dawley rat heart assessed as […] of Bcl2 at 50 mM preperfused 15 mins before global ischemia challenge for 30 mins followed by 120 mins of reperfusion by Western blotting. The assay is classed as functional, tissue-based.
In assay [7] the test system is Heart. The experiment in a line: Cardioprotective activity in Langendorff perfused Sprague-Dawley rat heart assessed as reduction of caspase 3 activation at 50 mM preperfused 15 mins before global ischemia challenge for 30 mins followed by 120 mins of reperfusion by Western blotting. The assay is classed as functional, tissue-based.
Assay [8] concerns Heart. Briefly: Cardioprotective activity in Langendorff perfused Sprague-Dawley rat heart assessed as recovery of left ventricular developed pressure at 50 mM preperfused 15 mins before global ischemia challenge for 30 mins followed by 120 mins of reperfusion. The assay is classed as functional, tissue-based.
The subject of assay [9] is Heart. The experiment in a line: Cardioprotective activity in Langendorff perfused Sprague-Dawley rat heart assessed as reduction in myocardial infarction size at 50 mM preperfused 15 mins before global ischemia challenge for 30 mins followed by 120 mins of reperfusion by triphenyl tetrazolium chloride method. The assay is classed as functional. On the set-up: scale not given: the % may be the effect or the level left.

Assay [10] deals with Heart. Briefly: Cardioprotective activity in Langendorff perfused Sprague-Dawley rat heart assessed as recovery of aortic pressure at 50 mM preperfused 15 mins before global ischemia challenge for 30 mins followed by 120 mins of reperfusion. Format: functional, tissue-based.
The test system of assay [11] is Heart. The experiment in a line: Cardioprotective activity in Langendorff perfused Sprague-Dawley rat heart assessed as prevention of cytochrom c release from cytosolic fraction at 50 mM preperfused 15 mins before global ischemia challenge for 30 mins followed by 120 mins of reperfusion by Western blotting. The assay is classed as functional, tissue-based.

Take `C/C=C/C=C/C=C/C=O`: the result in the assay with Heart [1], in the assay on Heart [3], in the assay on Heart [4], in the assay on Heart [5], in the assay with Heart [6] and with Heart [7] was Active. For the same molecule, the outcome in the assay on Heart [8], in the assay with Heart [10] and in the assay with Heart [11] was Active. In addition, the Activity is on record as 15% with Heart [2] and 16% in the assay on Heart [9].

In the case of `C/C=C/C=C/C=C/C(=O)[O-].[K+]`, the outcome in the assay on Heart [1], in the assay on Heart [3], with Heart [4], with Heart [5], in the assay on Heart [6] and in the assay with Heart [7] was Active. In addition, the result in the assay on Heart [8], in the assay on Heart [10] and with Heart [11] was Active. Also, the Activity with Heart [2] is 13.6%; with Heart [9], 15%.
